Experimental data reported in patent US20040142977A1, “4-Substituted-picolinic acid amide derivatives useful as fungicides” (priority 2001, published 2004).

melting point: 160 °C
Compound: O=Cc1ccnc(C(=O)Nc2ccc(Oc3ccc(C(F)(F)F)cc3)cc2)c1O [1-2, 2-{N-para-[4-(trifluoromethylphenoxy)phenyl]} aminocarbonyl-3-hydroxy-4-formyl pyridine]
